# Source: patent publication US20180271925A1, “Method For Improving Gingivitis And Periodontitis By Antibacterial, Antioxidant And Anti-Inflammatory Effects And Inhibition Of Alveolar Bone Loss Of Complex Extracts Of Moringa Leaf And Eucommia Bark” (HLSCIENCE CO., LTD., priority 2017, published 2018)
# Experiments:
# Format in all cases: in vivo, rat
# [1] = test system: interleukin (IL)-1β in the gingival tissue; test: IL-1β content in gingival tissue of EPD rats, 14 natural substance extracts; conditions: extract 200 mg/kg (IND 5 mg/kg) oral once a day for 10 days, FIG. 1
# Protocol: The gingivitis- and periodontitis-improving effect was evaluated using rats with ligature-induced experimental periodontitis (EPD). 24 hours after the ligature of the cervical portion, each extract dissolved in sterilized distilled water was orally administered at a dosage of 5 mL/kg (200 mg/kg) once a day for 10 days and the change in the amount of interleukin (IL)-1β in the gingival tissue and the alveolar bone volume was observed along with histopathological changes. A group to which 5 mg/kg indomethacin (IND), which is a nonsteroidal anti-inflammatory drug (NSAID), was orally administered was used as a control group. […]
# After EPD for 11 days, the gingival tissue was homogenized and subjected to measurement with the IL-1β rat ELISA kit (Abcam, Cambridge, UK). […] After adding 50 μL of a stop solution to each well, absorbance was measured with a microplate reader (Tecan, Mannedofr, Switzerland) at a wavelength of 450 nm.
# [2] = test system: rats with ligature-induced experimental periodontitis (EPD); test: Alveolar bone volume in EPD rats, 14 natural substance extracts; conditions: extract 200 mg/kg (IND 5 mg/kg) oral once a day for 10 days, FIG. 2
# Protocol: The gingivitis- and periodontitis-improving effect was evaluated using rats with ligature-induced experimental periodontitis (EPD). 24 hours after the ligature of the cervical portion, each extract dissolved in sterilized distilled water was orally administered at a dosage of 5 mL/kg (200 mg/kg) once a day for 10 days and the change in the amount of interleukin (IL)-1β in the gingival tissue and the alveolar bone volume was observed along with histopathological changes. A group to which 5 mg/kg indomethacin (IND), which is a nonsteroidal anti-inflammatory drug (NSAID), was orally administered was used as a control group.
# Each of the concentrated pomegranate powder and the 13 extracts containing moringa leaf (balloon flower root, gardeniae fructus, scutellariae radix, moringa, lotus leaf, Chinese mulberry leaf, ginger, peony root, achyranthis radix, eucommia bark, red clover, dandelion and dandelion root) was dissolved in sterilized distilled water to a concentration of 40 mg/mL and orally administered at a dosage of 5 mL/kg (200 mg/kg) from 24 hours after the ligature of the cervical portion once a day for 10 days. […]
# Alveolar bone loss was measured according to the method of Crawford et al. [1987]. […] The area between the end of the gingiva and the end of the incisor between the two teeth subjected to EPD was expressed as mm/rat.
# [3] = test system: osteoclasts in alveolar bone; test: Number of osteoclasts in alveolar bone of EPD rats (TRAP staining); conditions: dosage of 200 mg/kg oral once a day for 10 days, FIG. 7
# Protocol: The gingivitis- and periodontitis-improving effect was evaluated using rats with ligature-induced experimental periodontitis (EPD). 9 complex compositions of the moringa leaf extract (MF) and the eucommia bark extract (EC) (MF:EC=1:1, 1:2, 1:4, 1:6, 1:8, 2:1, 4:1, 6:1 and 8:1; mg:mg) dissolved in sterilized distilled water were orally administered at a dosage of 5 mL/kg (200 mg/kg) once a day for 10 days and body weight, alveolar bone, number of viable aerobic bacteria in the oral tissue, interleukin (IL)-1β and tumor necrosis factor (TNF)-α contents in the gingiva, lipid peroxidation (malondialdehyde (MDA) content) and change in the activity of inducible nitric oxide synthase (iNOS) and myeloperoxidase (MPO) were observed together with histopathological changes. […] A group to which 5 mg/kg indomethacin (IND), which is a nonsteroidal anti-inflammatory drug (NSAID), was orally administered was used as a control group. […]
# The number of osteoclasts was determined by staining with TRAP and counting the number of TRAP-positive multinucleated cells. […] The number of TRAP-positive multinucleated osteoclasts (having 3 or more nuclei) formed on the surface of the alveolar bone was counted using an optical microscope.
smiles,measurement,setting,value
"COc1ccc2c(c1)c(CC(=O)O)c(C)n2C(=O)c1ccc(Cl)cc1 [IND, indomethacin]",change in IL-1β content in the gingival tissue as compared to the EPD control group,[1],significantly decrease (p<0.01)
same,change in alveolar bone volume as compared to the EPD control group,[2],significantly increase (p<0.01 or p<0.05)
same,change in the number of osteoclasts as compared to the EPD control group,[3],−50.19%
